The results in this text go back to US7794761B2, “Methods for inducing anti-anxiety and calming effects in animals and humans” (Seroctin Research & Technology, Inc., priority 2000, dated 2010).

This assay has as its system montane vole, Microtus montanus. Nature of the assay: Uterine weight response in female montane voles after intraperitoneal injection. The assay is classed as in vivo. As to conditions: i.p. 5 mcg/day for three days; for Average Uterine Weight: sacrificed 24 hours after last injection, control 15.2 ± 2.4. As for the experimental part: Female montane voles, Microtis montanus, received intra peritoneal injections of representative compounds belonging to Formulas I, II and III for three consecutive days and sacrificed twenty-four (24) hours after the last injection to examine uterine weight response. To assess the properties of each representative compound, pure ones made by chemical means (University of Utah Department of Chemistry, Salt Lake City, Utah) were prepared specifically for this test. All compounds were injected at a dose level of 5 mcg/day, dissolved in five percent (5%) propylene glycol for a total injection volume of 0.5 ml. Control animals received 0.5 ml of five percent (5%) propylene glycol only. All voles were 4-5 weeks old and weighed 25-29 g.

Regarding `COc1ccc(O)c(N)c1` [2-amino-4-methoxyphenol], the “Average Uterine Weight” value stood at 22.2 ± 3.2 mg.
Still for that read-out and setting: with `COc1ccc(O)c(NC(C)=O)c1` [2-hydroxy-5-methoxyacetanilide] the figure was 21.1 ± 4.4 mg.
In the case of `COc1ccc(NC(C)=O)c(O)c1` [2-hydroxy-4-methoxyacetanilide], the “Average Uterine Weight” value was determined as 23.1 ± 2.7 mg.
Turning to `COc1ccc2[nH]c(=O)oc2c1` [6-methoxy-2-benzoxazolinone], the “increase in uterine weight over control group” value came out at 82% and the “Average Uterine Weight” value turned out to be 27.7 ± 5.6 mg.
`COc1ccc2oc(=O)[nH]c2c1` [5-methoxy-2-benzoxazolinone]: the “increase in uterine weight over control group” value was 32% and the “Average Uterine Weight” value worked out at 20.0 ± 4.7 mg.
On to `COc1ccc(N)c(O)c1` [2-amino-5-methoxyphenol], for which the “Average Uterine Weight” value was found to be 21.8 ± 3.5 mg.
Still for that read-out and setting: to `CCOc1ccc(NC(C)=O)c(O)c1` [2-hydroxy-4-ethoxyacetanilide] belongs 22.2 ± 3.9 mg.
